Measured values from patent publication US12396977B2, “Composition for treating degenerative brain diseases, containing 2-pentylfuran as active ingredient” (DAEGU GYEONGBUK INSTITUTE OF SCIENCE AND TECHNOLOGY, priority 2019, dated 2025).

How the values were obtained:
[1] = Disease behavior: mouse mobility (movement distance) after IP injection; format: in vivo; settings: after intraperitoneal (IP) injection
Method: It is known that an increase in disease behavior by activation of microglia is due to an increase in secreted cytokines. This experiment was conducted to confirm an increase in disease behavior with an increase in cytokines. The evaluation of disease behavior was made after IP injection of Sup or 2-PF into the mice.
After IP injection, the mouse was placed in a space with four open sides (40×40×40 cm, white field, black wall), and after the position of the mouse was recorded for 30 minutes using a camera, the movement distance was calculated Thereafter, a pseudo-color heat map was drawn using EthoVision XT (Noldus, Netherlands).

primary microglia [2] = assay: Active oxygen (ROS) production in primary microglia; format: cell-based, mouse
Method: Superoxide concentrations were calculated by measuring the degree of decrease in cytochrome c using a VersaMax microplate reader (Babior et al., 1973). Microglia were cultured on a 96-well plate at a concentration of 1.0×10^5 cells/well, and the microglia were activated by a 10 μM ATP solution containing 2-pentylfuran and cytochrome c, or a solution of Sup mixed with cytochalasin B (5 μM; #C66762; Sigma Aldrich). The resulting ROS concentration was measured by changes in light absorption at 550 nm at intervals of 1 minute for 25 minutes.
Active oxygen levels were measured using 2′,7′-dichlorodihydrofluorescein diacetate (DCF-DA, #D6883; Sigma Aldrich) using a method that had undergone minor modifications from the existing method. (Bae et al., 2001). More specifically, the primary microglia were treated with 10 μM DCF-DA in a 24-well plate (5.0×10^5 cells/well) […] at a temperature of 37° C. for 30 minutes. One plate was treated with 2-PF and one was not. Cells in each well were measured by a flow cytometer (FACS Accuri™ C6; BD Biosciences). MFI was measured in the same manner as described above.

Olfr110 = assay: Odorant receptor / Olfr110 expression in microglia (qRT-PCR, immunostaining); format: cell-based, mouse; settings: vs control
Text: For the measurement of mRNA, RNA was isolated from red blood cells, microglia, astrocytes, Hana3A cells, or cerebral cortical cells using the MagNa Lyser (Roche Molecular Diagnostics) using TRIzol reagent (Invitrogen, Carlsbad, CA.) according to the manufacturer's protocol. Then, cDNA was generated through reverse transcription using the isolated mRNA (using PrimeScript™ 1st str and cDNA Synthesis kit—#6110; Takara Bio Inc). This process was quantitatively measured in real time through quantitative real-time-PCR (using LightCycler® 480 SYBR Green I Master). The measured values were calculated using the 2-ΔΔCt method.
Thereafter, the cells were washed with PBS and fixed in 4% paraformaldehyde (#6148; Sigma Aldrich) for 5 minutes. Subsequently, the cells were cultured in PBS containing 4% normal horse serum (#008-000-121; Jackson ImmunoResearch) and 0.1% TWEEN® 20 (#P9416; Sigma-Aldrich) at room temperature for 1 hour. Then, the cells were […] at 4° C. overnight with the primary antibodies listed below. The antibodies are as follows: Olfr110 (rabbit-anti-Olfr110; 1:10,000; #ab177327; Abcam), Iba-1 (goat-anti-Iba-1; 1:1,000; #ab5076; Abcam), and GFAP (mouse-anti-GFAP; 1:1,000; #556330; BD Biosciences). Samples were cultured with secondary antibodies in PBS including 0.1% TWEEN® 20 (#P9416; Sigma-Aldrich) at room temperature for 1 hour. […]

primary microglia [3] = assay: Western blot of phosphorylated signalling proteins in primary microglia; format: cell-based, mouse; settings: 0, 2, 5, 10, 20, 30 minutes after treatment
Method: Cells and tissues were prepared using the T-PER® reagent (#78510; Thermo Fisher Scientific) with protease inhibitors (#04-693-116-001; Roche Molecular Diagnostics), DMSF (Sigma-Aldrich) and lysed using the MagNA Lyser (Roche Molecular Diagnostics). A total protein extract was quantified by the Bradford assay. The sample was dissolved in 7.5% SDS-PAGE or 4 to 20% gradient mini-PROTEIN TGX Precast Gels (#456-1064; Bio-Rad Laboratories), and then blotted onto nitrocellulose membranes (#10600002; GE Healthcare). The membrane was then blocked in 5% skimmed milk powder, TBST, 0.1% TWEEN® 20 (#P9416; Sigma-Aldrich) and Tris-buffered saline for 1 hour, and then incubated with primary antibodies at 4° C. overnight. The antibodies are as follows: Olfr110 (36 kDa; 1:1,000; #ab177327; Abcam), anti rhodopsin (39 kDa; 1:1,000; #MABN15; Millipore), CREB (43 kDa; 1:1,000; #9197; Cell Signaling Technology), phospho-CREB (43 kDa; 1:1,000; #9198; Cell Signaling Technology), ERK (44 kDa; 1:1,000; #sc094; Santa Cruz), phospho-ERK (42, 44 kDa; 1:1,000; #sc-7383; Santa Cruz), phospho-Akt (60 kDa; 1:500; sc-293125; Santa Cruz), phospho-JNK (46, 54 kDa; 1:500; sc-6254; Santa Cruz), phosphor-p38 (38 kDa; 1:1,000; sc-7973; Santa Cruz), or beta-Actin (45 kDa; 1:10,000; #4967; Cell Signaling Technology). Furthermore, an isotype-matched horseradish peroxidase-conjugated secondary antibody was used at 1:100,000 with anti-rabbit in TBST (#711-035-152; Jackson ImmunoResearch) and 1:40,000 with anti-mouse (#715-035-150; Jackson ImmunoResearch) at room temperature for 2 hours. As an immunoreactive protein band, SuperSignal™ West Pico Chemiluminescent Substrate (#34080; Thermo Fisher Scientific) was used.

Olfr110 protein level (immunostaining) (Olfr110): significantly increases
Structure (SMILES): CCCCCc1ccco1 [2-PF, 2-pentylfuran]
mobility of the mouse (total movement distance) [1]: concentration-dependent decrease
production of active oxygen on top of Sup MOI 5 (primary microglia [2]; 500 μM 2-PF): further increased
active oxygen secretion of microglia (primary microglia [2]; 100, 300, and 500 μM): significantly increased in a concentration-dependent manner
phosphorylation levels of ERK, p38, JNK, and Akt (primary microglia [3]): increased from 2 minutes and stopped increasing at 20 minutes
